“Also recorded” adds a separate entry of the source.
What was measured:
[1] = test system: hair follicles on the dorsal skin of female C57BL/6 mice; assay: mouse model of hair regeneration (dorsal skin, refractory telogen phase); conditions: high dosage level (2000 μM) on dorsal skin, once a day for 10 days, negative = no hair growth;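 further: mice roughly 8 weeks old, negative control skin section treated with 100% alcohol, regrowth checked daily with day counted from start of dosing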
Description: The mouse model adopts female C57BL/6 mice (about 8 weeks).
In the present disclosure, the sample solution is applied on the dorsal skin, where the hair follicle stays at the refractory telogen phase, to observe whether the peptides are beneficial to hair growth.
The sample solution is applied on each of the sections for 10 days. The administration of the sample solution includes, but not limited to, the injection (50 μl) and the coating (10 μl). In addition, the dosage of the sample solution includes, but not limited to, the high dosage level (2000 μM) and the low dosage level (200 μM).
In order to avoid experimental error due to manual operation, a positive control and a negative control are predetermined on two sections. […] The second section 2 is coated with high dosage level of HGP or the pharmaceutical composition for 10 days (once a day). The third section 3 is coated with low dosage level of HGP or the pharmaceutical composition for 10 days (once a day). The fourth section 4 is coated with 100% alcohol for 10 days (once a day). The fourth section 4 is regarded as the negative control. The fifth section 5 is continuously injected with the high dosage of HGP or pharmaceutical composition for 10 days (once a day). The sixth section 6 is continuously injected with the low dosage of HGP or pharmaceutical composition for 10 days (once a day). The HGP prepared for the sections is the same amino acid sequence.
HGP or pharmaceutical composition having the same as referred at the table 1 is implemented through the above-mentioned process and then the hair regeneration condition is recorded everyday. Since the period of the refractory telogen phase is 28 days, it is regards as a negative result that no hair regeneration is observed at thirtieth day after the administration of the sample solution.
The number x of the hair growth in the table 3 means that the hair regeneration condition is observed at the x'th day after the high dosage level is administrated on the dorsal skin. For instance, the number (x=5) means that the hair growth is observed at fifth day. Furthermore, the symbol NA represents the need for further analysis. […] In addition, the “negative” represents no hair growth by using the peptide in accordance with the experimental number.

[2] = test system: β-catenin activity in Human Hair Follicular Keratinocytes (HHFK); assay: TCF reporter assay in HHFK cell line; assay type: cell-based; conditions: HHFK cells, 200 μM peptide, TOP/FOP reporter, FIG. 6; listed as SEQ ID No: 1
Description: (§1) FIG. 6 illustrates a schematic view of a TCF reporter assay in Human Hair Follicular Keratinocytes (HHFK) cell line. TOP represents that the reporter gene has a functional binding site where β-catenin is bound. […] CTL represents that HHFK cell line is not treated with any stimulant. iPept-1 means that HHFK cell line is treated with the SEQ ID No: 1 peptide.
(§2) In the present disclosure, Human Hair Follicular Keratinocytes (HHFK), HaCaT Keratinocyte and macrophages are used as cell models for realizing the mechanism. Reporter assay and QRT-PCR are used as bioactivity assays to identify how the SEQ ID No. 1 peptide improves hair growth.

[3] = test system: β-catenin in the hair follicle stem cells; assay: immuno-fluorescent staining, β-catenin marker; assay type: in vivo, mouse; conditions: FIG. 5, listed as SEQ ID No: 1
Description: (§3) After the female C57BL/6 mice are injected with the SEQ ID No. 1 peptide, the immuno-fluorescent staining with the marker CK15 is performed so as to observe whether the genes, such as Wnt3a, Wnt/β-catenin are activated or not.
(§4) Thus, the SEQ ID No: 1 peptide enables activation of the regeneration of the hair follicle stem cells. In order to realize how the SEQ ID No: 1 peptide activates the regeneration of the hair follicle stem cells, the immuno-fluorescent staining in accordance with Win/β-catenin signal transduction pathway is performed. […] Since β-catenin is a downstream gene of Wnt signal transduction pathway, activating β-catenin allows the initiation of a Wnt signal transduction pathway so as to regenerate the hair follicle stem cell. […] In other words, the SEQ ID No: 1 peptide may activate the Wnt/β-catenin signal transduction pathway to activate the regeneration of the hair follicle stem cells.

[4] = test system: Wnt7b gene expression in macrophages; assay: RT-PCR analysis in macrophages, Wnt7b; assay type: cell-based, human; conditions: 200 μM peptide for 8 hours
Description: (§5) The SEQ ID No. 1 peptide is treated in HHFK, HaCaT and human macrophage to study the hair growth mechanism induced by the SEQ ID No. 1 peptide. In the present disclosure, Human Hair Follicular Keratinocytes (HHFK), HaCaT Keratinocyte and macrophages are used as cell models for realizing the mechanism. Reporter assay and QRT-PCR are used as bioactivity assays to identify how the SEQ ID No. 1 peptide improves hair growth. After macrophages are treated with the 200 μM SEQ ID No: 1 peptide (iPept-1) for 8 hours, gene regulation of Wnt family (Wnt1, Wnt2, Wnt3a, Wnt4, Wnt6, Wnt7a, Wnt7b, Wnt10a, Wnt10b, Wnt16) are detected by RT-PCR and QRT-PCR tests as shown in FIGS. 8 and 9. It is observed that the transcription level of Wnt16 and Wnt7b increases in accordance with the treatment of iPept-1.

[5] = test system: β-catenin activity in HaCaT Keratinocytes; assay: TCF reporter assay in HaCaT Keratinocyte cell line; assay type: cell-based; conditions: HaCaT cells, 200 μM peptide, TOP/FOP reporter, FIG. 7; listed as SEQ ID No: 1
Description: as §1, with “7” for “6”, “HaCaT Keratinocyte” for “Human Hair Follicular Keratinocytes (HHFK)”, “HaCaT Keratinocytes are” for “HHFK cell line is”
as §2

[6] = test system: Wnt16 gene expression in macrophages; assay: RT-PCR / QRT-PCR analysis in macrophages, Wnt16; assay type: cell-based, human; conditions: 200 μM peptide for 8 hours
Description: as §5

[7] = test system: marker CK15 of the hair follicle stem cells; assay: immuno-fluorescent staining, marker CK15; assay type: in vivo, mouse; conditions: mice injected with the peptide, FIG. 3
Description: as §3, §4

[8] = test system: Wnt3a in the hair follicle stem cells; assay: immuno-fluorescent staining, Wnt3a marker; assay type: in vivo, mouse; conditions: FIG. 4
Description: as §3, §4

| Substance | Number x (hair regeneration observed at the x'th day) [1] | further results |
| --- | --- | --- |
| PSTHVLIFGSG [P24] | negative | – |
| HVLITHTI (a designed peptide according to experiment) [P15] | negative | – |
| PSTHVLITHTS (a designed peptide according to experiment) [P27] | negative | – |
| FGTHVLITHTI (a designed peptide according to experiment) [P36] | 15 days | – |
| HVLIT (a designed peptide according to experiment) [P2] | 17 days | – |
| PSTHVLITHGS (a designed peptide according to experiment) [P21] | 23 days | – |
| PSTHVLITHTG (a designed peptide according to experiment) [P22] | 23 days | – |
| LITHTI (a designed peptide according to experiment) [P17] | 22 days | – |
| PSTHVLLTHTI (a designed peptide according to experiments) [P41] | 19 days | – |
| PSTHVLITHT (a designed peptide according to experiment) [P12] | 19 days | – |
| STHVLITHTI (a designed peptide according to experiment) [P13] | negative | – |
| GSFGSFITHTI (a designed peptide according to experiment) [P34] | negative | – |
| PSTHVLSFGSG (a designed peptide according to experiment) [P23] | negative | – |
| PSTHVLITHTI (a designed peptide according to experiments) [P1] | 17 days | relative luciferase activity (activity of β-catenin) [2]: increase the activity of β-catenin; also recorded: enhance activity of β-catenin; activation of β-catenin in hair follicle stem cells [3]: effect on activating or regenerating the hair follicle stem cells; also recorded: activated; gene expression of Wnt7b (RT-PCR) ([4]; FIG. 8, listed as SEQ ID No: 1): activate the gene expression; gene expression of Wnt7b (RT-PCR) ([4]; FIG. 8, listed as iPept-1): increases; relative luciferase activity (activity of β-catenin) [5]: increase the activity of β-catenin; also recorded: enhance activity of β-catenin; gene expression of Wnt16 (RT-PCR) ([6]; FIG. 8, listed as SEQ ID No: 1): activate the gene expression; gene expression of Wnt16 (RT-PCR) ([6]; FIG. 8, listed as iPept-1): increases; gene expression of Wnt16 (QRT-PCR) ([6]; FIG. 9): enhances the gene expression; activation of marker CK15 of hair follicle stem cells [7]: obviously activated; activation of Wnt3a in hair follicle stem cells [8]: obviously activated |
| GSFGVLITHTI (a designed peptide according to experiment) [P32] | negative | – |
| GSTHVLITHTI (a designed peptide according to experiment) [P30] | 22 days | – |
| FGSHVLITHTI (a designed peptide according to experiment) [P37] | negative | – |
| THVLITHTI (a designed peptide according to experiment) [P14] | negative | – |
| VLITHTI (a designed peptide according to experiment) [P16] | negative | – |
| GSFHVLITHTI (a designed peptide according to experiment) [P31] | negative | – |
| LITHT (a designed peptide according to experiment) [P4] | 17 days | – |

| Substance | Number x (hair regeneration observed at the x'th day) [1] | further results |
| --- | --- | --- |
| PSTHVLITHTISRI (a designed peptide according to experiment) [P6] | 19 days | – |
| PSTHVLI (a designed peptide according to experiment) [P9] | negative | – |
| GSFGFLITHTI (a designed peptide according to experiment) [P33] | negative | – |
| PSTHVLITGSG (a designed peptide according to experiment) [P25] | 22 days | – |
| PSTHVL (a designed peptide according to experiment) [P8] | 15 days | – |
| FGSFVLITHTI (a designed peptide according to experiment) [P38] | negative | – |
| FSTHVLITHTI (a designed peptide according to experiment) [P35] | 15 days | – |
| PSTHVLIGSFG (a designed peptide according to experiment) [P19] | negative | – |
| PSTHVLITH (a designed peptide according to experiment) [P11] | 19 days | – |
| PSTHVLITHTISR (a designed peptide according to experiment) [P28] | negative | – |
| PSTHVLITHSG (a designed peptide according to experiment) [P26] | 22 days | – |
| PSTHVLGSFGS [P18] | 22 days | – |
| VLITH (a designed peptide according to experiment) [P3] | 17 days | – |
| PSTHVLITHTIS (a designed peptide according to experiment) [P29] | 22 days | – |
| FGSFGLITHTI (a designed peptide according to experiment) [P39] | negative | – |
| PSTHVLIT (a designed peptide according to experiment) [P10] | negative | – |
| ITHTI (a designed peptide according to experiment) [P7] | 17 days | – |
| STHVL (a designed peptide according to experiment) [P5] | 19 days | – |
| FGSFGSITHTI (a designed peptide according to experiment) [P40] | negative | – |
| PSTHVLITGSF (a designed peptide according to experiment) [P20] | negative | – |
